# US10874631B2, “Altertoxin II as a selective inhibitor of Ewing family of tumor cells” (priority 2016, dated 2020)
# How the values were obtained:
# ES-2 = assay: alamar blue assay, proliferation; type: cell-based; conditions: Homo sapiens, ES-2, Ewing Sarcoma, N = 3-6
# Description: (§1) FIG. 3A-3B. (A) The effects of altertoxin II were evaluated using the SRB assay in 6 Ewing sarcoma cell lines as compared to 4 other pediatric solid tumor cells lines. n≥3 independent experiments. (B) The effects of altertoxin II were evaluated by the Houghton laboratory using the alamar blue assay in an additional 6 Ewing sarcoma cell lines and potency compared to the activities in 5 rhabdomyosarcoma cell lines. n=3 independent experiments.
# (§2) The effects of altertoxin II were studied in a larger panel of cell lines and the GI50, the concentration that causes 50% inhibition of cell growth, and the TGI, the concentration that caused total growth inhibition, were determined using the sulforhodamine b (SRB assay). The mean GI50 values shown graphically in FIG. 3A. The IC50, the concentration that causes 50% inhibition of cell proliferation, values were determined in a second panel of Ewing sarcoma and rhabdomyosarcoma cell lines using the altar blue assay and these values are presented in Table 2 and the mean in […].
# ES-4 = assay: alamar blue assay, proliferation; type: cell-based; conditions: ES-4, Ewing Sarcoma
# Description: as §1, §2
# ES-7 = assay: alamar blue assay, proliferation; type: cell-based; conditions: Homo sapiens, ES7, ES-7, Ewing Sarcoma
# Description: as §1, §2
# ES-8 = assay: alamar blue assay, proliferation; type: cell-based; conditions: Homo sapiens, ES8, ES-8, Ewing Sarcoma
# Description: as §1, §2
# EW-8 = assay: alamar blue assay, proliferation; type: cell-based
# Description: as §1, §2
# Rh18 = assay: alamar blue assay, proliferation; type: cell-based; conditions: Homo sapiens, Rh18, Rhabdomyosarcoma
# Description: as §1, §2
# Rh28 = assay: alamar blue assay, proliferation; type: cell-based; conditions: Rh28, Rhabdomyosarcoma
# Description: as §1, §2
# Rh30 = assay: alamar blue assay, proliferation; type: cell-based; conditions: Rh30, Rhabdomyosarcoma
# Description: as §1, §2
# Rh36 = assay: alamar blue assay, proliferation; type: cell-based; conditions: Rh36, Rhabdomyosarcoma
# Description: as §1, §2
# Rh41 = assay: alamar blue assay, proliferation; type: cell-based; conditions: Homo sapiens, Rh41, Rhabdomyosarcoma
# Description: as §1, §2
# Rh5 = assay: alamar blue assay, proliferation; type: cell-based; conditions: Rh5, Rhabdomyosarcoma
# Description: as §1, §2
# TC-71 = assay: alamar blue assay, proliferation; type: cell-based; conditions: TC-71, Ewing Sarcoma
# Description: as §1, §2
# Ewing sarcoma cell lines = assay: alamar blue panel, selectivity Ewing sarcoma vs rhabdomyosarcoma cell lines; type: cell-based; conditions: alamar blue assay, mean IC50; 6 Ewing sarcoma vs 6 rhabdomyosarcoma cell lines
# Description: FIG. 3A-3B. (A) The effects of altertoxin II were evaluated using the SRB assay in 6 Ewing sarcoma cell lines as compared to 4 other pediatric solid tumor cells lines. n≥3 independent experiments. […]
# as §2
# A673 Ewing sarcoma cells = assay: γH2AX immunofluorescence / high-content imaging; type: cell-based
# Description: (§3) FIG. 7A-7B. Altertoxin II (ATXII) selectively induces γH2AX foci in A673 Ewing sarcoma cells. (A) A673 cells were treated for 24 h with 100 nM altertoxin II and serine 139 phosphorylation of γH2AX evaluated by indirect immunofluorescence techniques. (B) High-content imaging and image analysis were used to construct concentration-response curves for nuclear γH2AX intensity in A673 and Rh30 rhabdomyosarcoma cells after treatment with altertoxin II for 6 h.
# (§4) Studies were conducted to test whether altertoxin II initiates DNA damage in Ewing sarcoma cells because of the well-known sensitivity of these cells to DNA damage and prior reports of altertoxin II-induced DNA damage in other mammalian cells (Fleck, S. C. et al., Toxicol Lett, 214, 27-32, 2012). […] Consistent with these measures of DNA damage altertoxin II.
# [1] = tested on: Rh30 rhabdomyosarcoma cells; assay: γH2AX high-content imaging; type: cell-based
# Description: as §3, §4
# [2] = tested on: RD-ES Ewing sarcoma cells; assay: DNA damage response immunoblot (Chk1, Chk2, p53); type: cell-based
# Description: FIG. 9A-9B. Altertoxin II causes phosphorylation of CHK1 and 2 and p53 in Ewing sarcoma cells. Ewing sarcoma cells, A673, RD-ES, SK-ES-1, or rhabdomyosarcoma A204 cells were treated with altertoxin II at the concentrations indicated for 6 h (A) or 24 h (B) and whole-cell lysates prepared and proteins separated by SDS-PAGE. These samples were analyzed by immunoblotting for total and phosphorylated Chk1 and 2 and p53 (A).
# Downstream activation of DNA damage response proteins by altertoxin II was subsequently evaluated.
# Rh30 cells = assay: Conditioned media effect on cell growth, SRB assay; type: cell-based; conditions: media from TC-32 cells treated with 100 nM for 6 h, vs media from Rh30 cells
# Description: FIG. 10. Effects of ATXII-conditioned media on Rh30 cell growth. TC-32 or Rh30 cells were treated with 100 nM ATXII for 6 h, the media added to Rh30 cells and cell growth determined with the SRB assay.
# An experiment was conducted to test this possibility. TC-32 Ewing sarcoma and Rh30 rhabdomyosarcoma cells were treated with 100 nM ATX for 6 h and the conditioned media was then applied to the resistant Rh30 cells. […] Differences in the altertoxin II concentration were measured by LC/MS in media from TC-32 and HepG2 hepatocellular carcinoma cells.
# [3] = tested on: A673 Ewing sarcoma murine xenograft; assay: A673 xenograft antitumor efficacy; type: in vivo, Mice
# Description: FIG. 11. Antitumor efficacy of ATXII against A673 xenograft model. Mice were injected i.p. with 20 mg/kg. ATXII on days 1, 3, 5, 8, 10 and 12, or 40 mg/kg on days 1, 3, and 5.
# Studies were conducted to evaluate the in vivo efficacy of altertoxin II in an A673 Ewing sarcoma murine xenograft model (FIG. 11). Mice bearing A673 xenograft tumors were treated with 20 mg/kg altertoxin II on days 1, 3, 5, 8 and 10, or with 40 mg/kg altertoxin II on days 1, 3 and 5.
structure (smiles),measurement,setting,value
O=C1CC[C@]2(O)c3c(ccc(O)c31)-c1ccc(O)c3c1[C@H]2[C@H]1O[C@H]1C3=O [altertoxin II],IC50,ES-2,23 ± 4 nM
same,IC50,ES-4,20 ± 2 nM
same,IC50,ES-7,3 ± 1 nM
same,IC50,ES-8,7 ± 1 nM
same,IC50,"EW-8; EW8, EW-8, Ewing Sarcoma, alamar blue",6.5 ± 0.3 nM
same,sensitivity of EW-8 cell line,EW-8; EW-8 is resistant to PARP1 inhibitors,highly sensitive
same,IC50,Rh18,990 ± 120 nM
same,IC50,Rh28,790 ± 90 nM
same,IC50,Rh30,750 ± 60 nM
same,IC50,Rh36,1030 ± 210 nM
same,IC50,Rh41,1130 ± 300 nM
same,IC50,Rh5,1050 ± 230 nM
same,IC50,TC-71,4.6 ± 0.5 nM
same,selectivity of Ewing sarcoma cell lines vs rhabdomyosarcoma cell lines,Ewing sarcoma cell lines,89 fold
same,"nuclear γH2AX, high-content imaging","A673 Ewing sarcoma cells; 30 nM, 6 h",caused an increase in γH2AX
same,H2AX serine 139 phosphorylation (γH2AX),"A673 Ewing sarcoma cells; 100 nM, within 6 h",rapidly induced H2AX serine 139 phosphorylation
same,γH2AX foci,"[1]; 10 μM, 24 h exposure",did initiate γH2AX foci
same,γH2AX foci,"[1]; concentrations up to 1 μM, 6 or 24 h",no γH2AX foci were detected
same,phosphorylation of p53,[2],also observed in RD-ES cells
same,phosphorylation of Chk1 and Chk2,"[2]; 10-300 nM, within 6 h",caused phosphorylation of checkpoint kinase 1 and 2
same,activity of conditioned media against Rh30 cells,Rh30 cells,substantially higher activity
same,tumor growth,"[3]; 20 mg/kg i.p. days 1, 3, 5, 8 and 10",trend of modest tumor growth inhibition
same,tumor volume vs control on day 14,"[3]; 20 mg/kg, day 14",no statistically significant difference
same,tumor growth,"[3]; 40 mg/kg i.p. days 1, 3 and 5, 14-day trial",significant inhibition of tumor growth
same,tumor size vs control on day 14,"[3]; 40 mg/kg, day 14, p=0.0001",significantly smaller than control tumors
same,therapeutic window,[3]; A673 xenograft,acceptable therapeutic window
